Experimental data: ChEMBL document CHEMBL1144724, “Secondary metabolites of Cinnamosma madagascariensis and their alpha-glucosidase inhibitory properties” (J Nat Prod, 2008)
Active and inactive are the calls of the source. The calls are words filed in the database; no cut-off is given here.

Experiment: Inhibition of alpha-glucosidase at 0.1 mg/mL relative to 1-deoxynojirimycin

SMILES | inhibition [%] | Activity
CC(=O)O[C@@H]1[C@@H](Cl)C2=C(COC2=O)[C@@]2(C)CCCC(C)(C)[C@H]12 | 28.1 | –
CO[C@@H]1O[C@@H](OC)[C@@]2(O)C1=C[C@@H](OC(C)=O)[C@H]1C(C)(C)CCC[C@@]12C | – | inactive
CC1(C)CCC[C@]2(C)[C@@H](C=O)C(C=O)=CC[C@@H]12 | 2.1 | –
CC(=O)O[C@@H]1[C@@H](O)C2=C(COC2=O)[C@@]2(C)CCCC(C)(C)[C@H]12 | 14.9 | –
CC(=O)O[C@@H]1C=C(C2O[C@@H]3OC(O)C4=C[C@@H](OC(C)=O)[C@H]5C(C)(C)CCC[C@]5(C)[C@]43O2)[C@](O)(C=O)[C@@]2(C)CCCC(C)(C)[C@H]12 (stereo partly drawn) | 83.7 | –

Second part, the molecule after the results:

inhibition [%] | Activity | SMILES
20 | – | CC(=O)O[C@@H]1C=C2C(=O)OC[C@]2(O)[C@@]2(C)CCCC(C)(C)[C@H]12
7.2 | – | CC1(C)CCC[C@@]2(C)[C@H]1[C@H](O)C=C1C(=O)OC[C@@]12O
46.2 | – | CC(=O)O[C@@H]1[C@@H](O)C2=C(C(=O)OC2)[C@@]2(C)CCCC(C)(C)[C@H]12
